What was measured:
human orexin 1 receptor = target: T1, human orexin 1 receptor (Homo sapiens, UniProt O43613); assay: Calcium accumulation in cells (FLIPR), antagonism of orexin A, human orexin 1 receptor; format: cell-based; conditions: for Ki: calcium accumulation, antagonism of orexin A, Cheng-Prusoff corrected, read-out: FLIPR hOx1R Ki; for inhibition at 10 µM: measured at a concentration of 10 μM of compound, read-out: FLIPR hOx1R % inhibition
T1 construct: expressed in transfected cells
T1 sequence (O43613 1-425): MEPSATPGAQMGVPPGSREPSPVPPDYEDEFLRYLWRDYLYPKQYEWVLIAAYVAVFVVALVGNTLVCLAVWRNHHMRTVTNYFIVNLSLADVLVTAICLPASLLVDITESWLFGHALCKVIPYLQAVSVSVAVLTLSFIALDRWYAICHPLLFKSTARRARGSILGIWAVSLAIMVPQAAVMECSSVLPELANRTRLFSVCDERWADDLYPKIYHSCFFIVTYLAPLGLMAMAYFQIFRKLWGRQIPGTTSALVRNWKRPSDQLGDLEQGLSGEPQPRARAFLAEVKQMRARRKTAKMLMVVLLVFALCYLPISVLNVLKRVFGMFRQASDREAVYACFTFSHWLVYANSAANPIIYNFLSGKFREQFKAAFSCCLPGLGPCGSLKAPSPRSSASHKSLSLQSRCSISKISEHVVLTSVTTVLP
Procedure: (§1) Calcium Accumulation in Cells (FLIPR):
(§2) Cells expressing human orexin 1 or human orexin 2 receptors, were seeded at 8,000 cells/well in 384 well black-walled clear bottom, poly-D-lysine coated plates. After 24 h, the medium was removed and cells were washed once with phosphate buffered saline and serum-deprived overnight in assay buffer (130 mM NaCl, 5.4 mM KCl, 1.8 mM CaCl2, 0.8 mM MgSO4, 0.9 mM NaH2PO4, 25 mM glucose, 20 mM HEPES, pH 7.4) containing bovine serum albumin (1% w/v).
(§3) On the day of the experiment, the cells seeded in black plates were treated with assay buffer containing the Ca^2+ sensitive fluorescent dye Fluo-4-AM (2 μM), and probenecid (0.1 mM). After 1 h plates were washed twice with, and resuspended in, assay buffer containing probenecid (0.1 mM) using a multi plate washer. The plates were placed into a FLIPR II (Fluorometric Imaging Plate Reader, Molecular Devices, Sunnyvale, Calif., USA) and baseline fluorescence (fluorescence light units, FLU) was measured (5 measurements, 2 S each; laser excitation 488 nm at 0.6-1 W, CCD camera exposure 0.4 s) before addition of buffer alone (basal) or containing test compounds (either compound of formula I alone, agonist alone or agonist in the presence of various concentrations of compounds of formula I). Fluorescence measurements were then continued every 1 S for 120 S followed by every 4 S for 240 S.
(§4) The measurements were typically made in two sequences:
(§5) Compounds of formula I were tested usually in a concentration range from 10^−9 M to 10^−5 M.
(§6) In the second round, performed one hour later (to allow for equilibration), Orexin A was tested either in the absence (calibration curves, Orexin A agonist controls) or in the presence of compounds of formula Ito determine antagonism.
(§7) Inhibition data is expressed in Table 1 as Kd [μM], converted by the Cheng and Prusoff correction (Kd=IC50/1+(L/EC50)), where IC50 is the 50% inhibition value determined in concentration response inhibition curves, EC50 is the half maximal activation concentration determined for orexin A in concentration response curves and L is the concentration of orexin A used in inhibition experiments performed in with a submaximal concentration of orexin A in the presence of up to 8 increasing concentrations of compound of formula I. Inhibition data is also expressed in Table 1 as % inhibition value measured at a concentration of 10 μM of selected compounds of formula I.

human orexin 2 receptor = target: T2, human orexin 2 receptor (Homo sapiens, UniProt O43614); assay: Calcium accumulation in cells (FLIPR), antagonism of orexin A, human orexin 2 receptor; format: cell-based; conditions: calcium accumulation, antagonism of orexin A, Cheng-Prusoff corrected; read-out: FLIPR hOx2R Ki
T2 construct: expressed in transfected cells
T2 sequence (O43614 1-444): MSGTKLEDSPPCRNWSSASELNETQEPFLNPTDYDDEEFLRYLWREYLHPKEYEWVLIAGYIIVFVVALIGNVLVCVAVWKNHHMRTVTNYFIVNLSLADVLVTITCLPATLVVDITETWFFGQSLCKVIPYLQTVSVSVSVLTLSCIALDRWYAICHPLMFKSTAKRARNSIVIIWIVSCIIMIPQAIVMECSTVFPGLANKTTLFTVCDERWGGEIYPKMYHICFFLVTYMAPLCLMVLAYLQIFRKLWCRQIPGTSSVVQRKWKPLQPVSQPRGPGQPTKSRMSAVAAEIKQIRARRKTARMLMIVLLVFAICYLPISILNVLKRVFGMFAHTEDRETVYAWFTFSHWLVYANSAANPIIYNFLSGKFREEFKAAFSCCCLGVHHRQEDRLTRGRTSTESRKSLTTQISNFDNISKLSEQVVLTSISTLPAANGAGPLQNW
Procedure: as §1, §2, §3, §4, §5, §6, §7

SMILES	Ki (human orexin 1 receptor) [nM]	Ki (human orexin 2 receptor) [nM]	inhibition at 10 µM (human orexin 1 receptor) [%]
Cc1cc(C)nc(N2CCC3(CC2)C(=O)N(Cc2c[nH]c4ccccc24)CCN3C)n1 [Example 1.2, 4-((1H-indol-3-yl)methyl)-9-(4,6-dimethylpyrimidin-2-yl)-1-methyl-1,4,9-triazaspiro[5.5]undecan-5-one]	3650	449	
Cc1cc(C)nc(N2CCC3(CC2)NCCN(Cc2nn(C)cc2-c2ccccc2)C3=O)n1 [Example 1.3, 9-(4,6-Dimethyl-pyrimidin-2-yl)-4-(1-methyl-4-phenyl-1H-pyrazol-3-ylmethyl)-1,4,9-triaza-spiro[5.5]undecan-5-on]		334	35
Cc1ccnc(N2CCC3(CC2)NCCN(Cc2c[nH]c4ccccc24)C3=O)n1 [Example 1.6, 4-((1H-Indol-3-yl)methyl)-9-(4-methylpyrimidin-2-yl)-1,4,9-triazaspiro[5.5] undecan-5-one]		222	26
COc1ccnc(N2CCC3(CC2)NCCN(Cc2c[nH]c4ccccc24)C3=O)n1 [Example 1.7, 4-((1H-Indol-3-yl)methyl)-9-(4-methoxypyrimidin-2-yl)-1,4,9-triazaspiro[5.5] undecan-5-one]		101	35
COc1cccc(-c2oc(C)nc2CN2CCNC3(CCN(c4nccc(C)n4)CC3)C2=O)c1 [Example 1.15, 4-((5-(3-Methoxyphenyl)-2-methyloxazol-4-yl)methyl)-9-(4-methylpyrimidin-2-yl)-1,4,9-triazaspiro[5.5] undecan-5-one]		107	44
Cc1cc(C)nc(N2CCC3(CC2)NCCN(Cc2nc(C)oc2-c2ccccc2)C3=O)n1 [Example 1.19, 9-(4,6-Dimethyl-pyrimidin-2-yl)-4-((2-methyl-5-phenyloxazol-4-yl)methyl)-1,4,9-triazaspiro[5.5] undecan-5-one]	2650	250	
Cc1ccnc(N2CCC3(CC2)NCCN(Cc2nc(C)oc2-c2ccccc2)C3=O)n1 [Example 1.20, 9-(4-Methyl-pyrimidin-2-yl)-4-((2-methyl-5-phenyloxazol-4-yl)methyl)-1,4,9-triazaspiro[5.5] undecan-5-one]		1840	12
Cc1cc(C#N)nc(N2CCC3(CC2)NCCN(Cc2nc(C)oc2-c2ccccc2)C3=O)n1 [Example 1.21, 6-Methyl-2-(4-((2-methyl-5-phenyloxazol-4-yl)methyl)-5-oxo-1,4,9-triazaspiro[5.5]undecan-9-yl) pyrimidine-4-carbonitrile]		337	29
COc1ccnc(N2CCC3(CC2)NCCN(Cc2nc(C)oc2-c2ccccc2)C3=O)n1 [Example 1.22, 9-(4-Methoxy-pyrimidin-2-yl)-4-((2-methyl-5-phenyloxazol-4-yl)methyl)-1,4,9-triazaspiro[5.5] undecan-5-one]		1020	19
COc1cc(C)nc(N2CCC3(CC2)NCCN(Cc2nc(C)oc2-c2ccccc2)C3=O)n1 [Example 1.23, 9-(4-Methoxy-6-methylpyrimidin-2-yl)-4-((2-methyl-5-phenyloxazol-4-yl)methyl)-1,4,9-triazaspiro[5.5] undecan-5-one]	2110	192	
COCc1cccc(-c2ocnc2CN2CCNC3(CCN(c4nc(C)cc(C#N)n4)CC3)C2=O)c1 [Example 1.28, 2-(4-((5-(3-(Methoxymethyl)phenyl)oxazol-4-yl)methyl)-5-oxo-1,4,9-triazaspiro[5.5]undecan-9-yl)-6-methylpyrimidine-4-carbonitrile]		511	33
COCc1cccc(-c2oc(C)nc2CN2CCNC3(CCN(c4nc(C)cc(C#N)n4)CC3)C2=O)c1 [Example 1.31, 2-(4-((5-(3-(Methoxymethyl)phenyl)-2-methyl-oxazol-4-yl)methyl)-5-oxo-1,4,9-triazaspiro[5.5]undecan-9-yl)-6-methylpyrimidine-4-carbonitrile]		64	38
COCc1cccc(-c2oc(C)nc2CN2CCNC3(CCN(c4nc(C)cc(OC)n4)CC3)C2=O)c1 [Example 1.32, 9-(4-Methoxy-6-methylpyrimidin-2-yl)-4-((5-(3-(methoxymethyl)phenyl)-2-methyl-oxazol-4-yl)methyl)-1,4,9-triazaspiro[5.5] undecan-5-one]	2840	84	
COc1ccc(-c2cn(C)nc2CN2CCNC3(CCN(c4nc(C)cc(C)n4)CC3)C2=O)cc1OC [Example 1.35, 4-((4-(3,4-Dimethoxyphenyl)-1-methyl-1H-pyrazol-3-yl)methyl)-9-(4,6-dimethylpyrimidin-2-yl)-1,4,9-triazaspiro[5.5] undecan-5-one]		400	25
COc1ccc(-c2cn(C)nc2CN2CCNC3(CCN(c4nc(C)cc(C)n4)CC3)C2=O)cc1 [Example 1.36, 9-(4,6-Dimethyl-pyrimidin-2-yl)-4-((4-(4-methoxyphenyl)-1-methyl-1H-pyrazol-3-yl)methyl)-1,4,9-triazaspiro[5.5] undecan-5-one]		187	41
COc1cc(OC)cc(-c2cn(C)nc2CN2CCNC3(CCN(c4nc(C)cc(C)n4)CC3)C2=O)c1 [Example 1.37, 4-((4-(3,5-Dimethoxyphenyl)-1-methyl-1H-pyrazol-3-yl)methyl)-9-(4,6-dimethylpyrimidin-2-yl)-1,4,9-triazaspiro[5.5] undecan-5-one]		2330	40
Cc1cccc(-c2cn(C)nc2CN2CCNC3(CCN(c4nc(C)cc(C)n4)CC3)C2=O)c1 [Example 1.38, 9-(4,6-Dimethyl-pyrimidin-2-yl)-4-((1-methyl-4-(m-tolyl)-1H-pyrazol-3-yl)methyl)-1,4,9-triazaspiro[5.5] undecan-5-one]		204	29
Cc1cc(C)nc(N2CCC3(CC2)NCCN(Cc2nn(C)cc2-c2cccc(F)c2)C3=O)n1 [Example 1.43, 9-(4,6-Dimethyl-pyrimidin-2-yl)-4-((4-(3-fluorophenyl)-1-methyl-1H-pyrazol-3-yl)methyl)-1,4,9-triazaspiro[5.5] undecan-5-one]		447	27
Cc1cc(C)nc(N2CCC3(CC2)NCCN(Cc2nn(C)cc2-c2cccc(C#N)c2)C3=O)n1 [Example 1.44, 3-(3-((9-(4,6-Dimethylpyrimidin-2-yl)-5-oxo-1,4,9-triazaspiro[5.5]undecan-4-yl)methyl)-1-methyl-1H-pyrazol-4-yl)benzonitrile]		1490	12
O=C1N(Cc2ccccc2-c2ccccc2)CCC12CCN(c1nc3ccccc3s1)CC2 [Example 3.10, 8-(Benzo[d]thiazol-2-yl)-2-(biphenyl-2-ylmethyl)-2,8-diazaspiro[4.5]decan-1-one]		1080	

Source: patent US20120165331A1, “Di/tri-aza-spiro-C9-C11alkanes” (priority 2010, published 2012)
